Test results: publication PMC12259978 (Scientific Reports, 2025)

Experiments:
[1] = target: T1, tyrosinase (Agaricus bisporus, UniProt C7FF04); assay: Enzyme kinetic study; type: biochemical
[2] = target: T1, tyrosinase; assay: Tyrosinase inhibitory assay; type: biochemical; settings: read-out: % inhibition of tyrosinase

T1 sequence (C7FF04 whole entry): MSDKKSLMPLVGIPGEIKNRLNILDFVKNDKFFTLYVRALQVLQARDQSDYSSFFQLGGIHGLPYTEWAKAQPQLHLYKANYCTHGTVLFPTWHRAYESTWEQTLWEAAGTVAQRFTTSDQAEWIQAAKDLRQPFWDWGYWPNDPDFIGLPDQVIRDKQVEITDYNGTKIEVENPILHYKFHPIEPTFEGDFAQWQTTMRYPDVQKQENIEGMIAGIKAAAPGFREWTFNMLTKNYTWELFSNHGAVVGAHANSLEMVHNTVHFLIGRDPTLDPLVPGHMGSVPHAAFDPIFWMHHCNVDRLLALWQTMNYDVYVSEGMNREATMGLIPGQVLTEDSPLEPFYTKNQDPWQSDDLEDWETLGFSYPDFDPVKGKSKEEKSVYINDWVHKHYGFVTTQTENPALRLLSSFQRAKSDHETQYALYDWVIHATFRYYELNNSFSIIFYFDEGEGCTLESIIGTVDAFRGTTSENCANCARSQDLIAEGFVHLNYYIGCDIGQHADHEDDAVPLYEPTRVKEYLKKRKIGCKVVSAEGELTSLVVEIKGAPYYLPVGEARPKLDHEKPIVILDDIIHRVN

Compound | Ki [1] [µM] | type of inhibition ([1]; Lineweaver-Burk plot, Vmax unchanged, Km increased) | inhibition at 50 µM [2] [%]
O=C(CSc1nc2ccccc2cc1C=Nn1c(S)nnc1-c1ccccc1)NCCc1ccccc1 [12j, 2-((3-(((3-Mercapto-5-phenyl-4H-1,2,4-triazol-4-yl)imino)methyl)quinolin-2-yl)thio)-N-phenethylacetamide] | 9.06 | competitive inhibitor | 86.6
O=C(CSc1nc2ccccc2cc1C=Nn1c(S)nnc1-c1ccccc1)Nc1ccc(Cl)cc1 [12d, N-(4-chlorophenyl)-2-((3-(((3-mercapto-5-phenyl-4H-1,2,4-triazol-4-yl)imino)methyl)quinolin-2-yl)thio)acetamide] |  |  | 66
O=C(CSc1nc2ccccc2cc1C=Nn1c(S)nnc1-c1ccccc1)Nc1ccc(Cl)cc1Cl [12e, N-(2,4-dichlorophenyl)-2-((3-(((3-mercapto-5-phenyl-4H-1,2,4-triazol-4-yl)imino)methyl)quinolin-2-yl)thio)acetamide] |  |  | 48.3
O=C(CSc1nc2ccccc2cc1C=Nn1c(S)nnc1-c1ccccc1)Nc1ccccc1 [12a, 2-((3-(((3-mercapto-5-phenyl-4H-1,2,4-triazol-4-yl)imino)methyl)quinolin-2-yl)thio)-N-phenylacetamide] |  |  | 32.2
COc1ccc(NC(=O)CSc2nc3ccccc3cc2C=Nn2c(S)nnc2-c2ccccc2)cc1 [12f, 2-((3-(((3-Mercapto-5-phenyl-4H-1,2,4-triazol-4-yl)imino)methyl)quinolin-2-yl)thio)-N-(4-methoxyphenyl)acetamide] |  |  | 40.9
Cc1ccc(NC(=O)CSc2nc3ccccc3cc2C=Nn2c(S)nnc2-c2ccccc2)cc1 [12g, 2-((3-(((3-Mercapto-5-phenyl-4H-1,2,4-triazol-4-yl)imino)methyl)quinolin-2-yl)thio)-N-(p-tolyl)acetamide] |  |  | 51.4
Cc1cccc(NC(=O)CSc2nc3ccccc3cc2C=Nn2c(S)nnc2-c2ccccc2)c1C [12i, N-(2,3-dimethylphenyl)-2-((3-(((3-mercapto-5-phenyl-4H-1,2,4-triazol-4-yl)imino)methyl)quinolin-2-yl)thio)acetamide] |  |  | 43.8
Cc1ccccc1NC(=O)CSc1nc2ccccc2cc1C=Nn1c(S)nnc1-c1ccccc1 [12h, 2-((3-(((3-Mercapto-5-phenyl-4H-1,2,4-triazol-4-yl)imino)methyl)quinolin-2-yl)thio)-N-(o-tolyl)acetamide] |  |  | 46
O=C(CSc1nc2ccccc2cc1C=Nn1c(S)nnc1-c1ccccc1)Nc1ccccc1Cl [12b, N-(2-chlorophenyl)-2-((3-(((3-mercapto-5-phenyl-4H-1,2,4-triazol-4-yl)imino)methyl)quinolin-2-yl)thio)acetamide] |  |  | 55.7
